Source: US7071163B2, “Compounds for targeting hepatocytes in vivo” (Mirus Bio Corporation, priority 2002, dated 2006)
Peptide text beside a SMILES is read from it. * marks the point of attachment. Biotin = O=C1N[C@H]2[C@H](CS[C@H]2CCCCC(=O)*)N1; PEG4 = NCCOCCOCCOCCOCCC(=O)O

What was measured:
mouse hepatocytes = assay: Delivery of biotinylated Cy3-dextran and Cy3-siRNA by MC892-SA conjugate; assay type: in vivo
Experimental: B. Delivery of biotinylated cargo by SA-p17 peptide conjugates. […] 2 mg SA was dissolved in 200 μl dH2O and added to a 200 μl 100 mM sodium phosphate/300 mM NaCl/2 mM EDTA, pH 7.2. A 10 mole equivalent of SPDP (Pierce) dissolved in DMF at 10 mg/ml was then added to the SA solution and mixed at RT for 1 h. The SPDP-modified streptavidin was then purified using a G-25 Sephadex column. It was determined that each SA molecule contained an average of 1.8 PDP groups based on a pyridine-2-thione assay. The SA-PDP conjugate was added to MC892 at a 1:18 molar ratio and incubated for 24 h at 4° C. The MC892-SA conjugates were purified on a G-25 Sephadex column. The sample was then freeze-dried and dissolved in a solution of 25 mM MES, 125 mM NaCl, pH 6.5 at 3 mg/ml.
One mg of NHS-PEG4-Biotin suspended in dry DMF at 10 mg/ml was added to 30 mg amino dextran (Molecular Probes, 70 kDa, 17.9 mole amine per polymer) that was dissolved in 0.1 M NaHCO3 at 10 mg/ml (molar ratio of 4.5 to 1). This solution was mixed overnight at room temperature, transferred into cellulose tubing (Fisher, 12–14,000 MWCO) and dialyzed once against 20 L 20 mM NH4Cl followed twice against 5 L dH20. The dialyzed sample was lyophilized. The sample was then dissolved in dH2O at 30 mg/ml. Each dextran polymer was estimated to contain an average of 0.5 biotin group. This biotinylated dextran was fluorescently labeled with Cy3-OSu (Amersham) at a weight ratio of 1:0.074. Excess free dye was removed using a Sephadex G-50 column. Labeled dextran was eluted in 25 mM NH4CO3. The sample was freeze dried and resuspended at 7.5 mg/ml in 25 mM HEPES/125 mM NaCl, pH 8.0. Biotinylated siRNA (5′-biotin-LC-siRNA, Dharmacon) was labeled with Cy3 using Cy3 LabelIT (Mirus Corp) according to manufacturer's instructions. […]
Liver samples were removed 10 min after injection, placed into OCT freezing medium and snap frozen in liquid nitrogen. […] Processed slides were mounted in Vectorshield (Vector Laboratories, Burlingame, Calif.) and analyzed using a Zeiss LSM510 confocal microscope.

hepatocytes [1] = assay: Delivery of Cy3-streptavidin by biotinylated synthetic p17 peptide, monkey; assay type: in vivo, Cyno monkey; conditions: b107 says ratio 18:1, method b106 13:1, 10 min
Experimental: A. Delivery of streptavidin (SA) by a biotinylated p17 peptide (MC893). […] Purified peptide was mixed with 250 μg of Cy3-labled SA (Jackson ImmunoResearch Laboratories, Inc. West Grove, Pa.) at peptide to SA molar ratios of 1.2:1, 9:1, 18:1, 45: 1, and 90:1 in a solution containing 25 mM HEPES, 125 mM NaCl, pH 8. The mixtures were injected into mice via the tail vein (400 μl injection volume). For monkey injection, 3.3 mg MC893 peptide was mixed with 3 mg of Cy3-SA, a 13:1 molar ratio, and purified using a G50 column. The sample was recovered in 12 ml 25 mM HEPES, 125 mM NaCl, pH 8 and slowly injected into a Cyno monkey via a subcutaneous vein in the arm. All animals were sacrificed 10 min after injection and liver samples were excised and frozen tissue sections prepared and placed onto microscopic slides. Air dried tissue sections were fixed and counterstained with Alexa 488 phalloidin and To-Pro-3 as previously described and analyzed by confocal microcopy.

hepatocytes [2] = assay: Delivery of Cy3-streptavidin by biotinylated synthetic p17 peptide, mouse; conditions: peptide to SA molar ratio of 18:1, 10 min
Experimental: Purified peptide was mixed with 250 μg of Cy3-labled SA (Jackson ImmunoResearch Laboratories, Inc. West Grove, Pa.) at peptide to SA molar ratios of 1.2:1, 9:1, 18:1, 45: 1, and 90:1 in a solution containing 25 mM HEPES, 125 mM NaCl, pH 8. The mixtures were injected into mice via the tail vein (400 μl injection volume). […] All animals were sacrificed 10 min after injection and liver samples were excised and frozen tissue sections prepared and placed onto microscopic slides. Air dried tissue sections were fixed and counterstained with Alexa 488 phalloidin and To-Pro-3 as previously described and analyzed by confocal microcopy.
The ability of biotin-peptide conjugates to target Cy3-labeled streptavidin to hepatocytes in mice is determined by confocal fluorescent microscopy as described above.

monkey hepatocytes = assay: Targeting of recombinant p17 proteins to monkey hepatocytes; assay type: in vivo; conditions: 500 μg via subcutaneous vein in arm, 1 h
Experimental: 6. Targeting of recombinant p17 proteins to monkey hepatocytes. Recombinant full-length p17 proteins were prepared as previously described. Purified p17 proteins, 500 μg of p17-K211 or p17-E211 in 33 ml of PBS, were slowly injected into monkeys via subcutaneous vein in arm. Liver samples were excised 1 h after injection, submerged in O.C.T. freezing medium and snap frozen in liquid nitrogen. Frozen liver sections (5–7 μm) were prepared using a cryostat and air-dried. Immunofluorescence detection for p17 proteins was performed as described above. Liver sections from an uninjected monkey were used as a control. Images represent an area of 75 μm^2 from a flattened composite of 8 consecutive confocal optical sections (each 0.4 μm thick). P17 is seen in black, cell nuclei in gray, F-actin in gray near basolateral membranes and in near bile capillary membranes.

With “Cys-PEG4-Lys-Asn-Glu-Ser-Ser-Thr-Asn-Ala-Thr-Asn-Thr-Lys-Gln-Trp-Arg-Asp-Glu-Thr-Lys-Gly-Phe-Arg-Asp-Glu-Ala-Lys211-Arg-Phe-Lys-Asn-Thr-Ala-Gly [MC892]” the “Cy3-dextran signal in hepatocytes” value (mouse hepatocytes; MC892-SA with biotinylated Cy3-dextran, 20 min (not shown)) was “internalized Cy3-dextran signals found in clusters near cell nuclei”, the “Cy3-dextran signal in hepatocytes” value (mouse hepatocytes; MC892-SA with biotinylated Cy3-labeled 70 kDa dextran, 10 min after injection) was “high levels of Cy3-dextran signal was observed inside hepatocytes” and the “targeting of Cy3-siRNA to liver” value (mouse hepatocytes; MC892-SA with biotinylated Cy3-siRNA, 10 min) was “successful targeting of siRNA to the liver”.

In the case of `C[C@H](NC(=O)[C@H](CCC(=O)O)NC(=O)[C@H](CC(=O)O)NC(=O)[C@H](CCCNC(=N)N)NC(=O)[C@H](Cc1ccccc1)NC(=O)CNC(=O)[C@H](CCCCN)NC(=O)[C@@H](NC(=O)[C@H](CCC(=O)O)NC(=O)[C@H](CC(=O)O)NC(=O)[C@H](CCCNC(=N)N)NC(=O)[C@H](Cc1c[nH]c2ccccc12)NC(=O)[C@H](CCC(N)=O)NC(=O)[C@H](CCCCN)NC(=O)[C@@H](NC(=O)[C@H](CC(N)=O)NC(=O)[C@@H](NC(=O)[C@H](C)NC(=O)[C@H](CC(N)=O)NC(=O)[C@@H](NC(=O)[C@H](CO)NC(=O)[C@H](CO)NC(=O)[C@H](CCC(=O)O)NC(=O)[C@H](CC(N)=O)NC(=O)[C@H](CCCCN)NC(=O)CCOCCOCCOCCOCCNC(=O)CCOCCOCCOCCOCCNC(=O)CCCC[C@@H]1SC[C@@H]2NC(=O)N[C@@H]21)[C@@H](C)O)[C@@H](C)O)[C@@H](C)O)[C@@H](C)O)C(=O)N[C@@H](CCCCN)C(=O)N[C@@H](CCCNC(=N)N)C(=O)N[C@@H](Cc1ccccc1)C(=O)N[C@@H](CCCCN)C(=O)N[C@@H](CC(N)=O)C(=O)N[C@H](C(=O)N[C@@H](C)C(=O)NCC(=O)O)[C@@H](C)O` [MC893] ({Biotin-PEG4-PEG4}-KNESSTNATNTKQWRDETKGFRDEAKRFKNTAG-OH), the “targeting of Cy3-SA to hepatocytes” value (hepatocytes [1]) is reported as “efficiently targeted Cy3-SA to hepatocytes” and the “targeting of Cy3-SA to hepatocytes” value (hepatocytes [2]) is reported as “efficiently targeted Cy3-SA to hepatocytes”.

B1: p17-K211: bacterially expressed His-tagged full-length wild-type T7 p17 tail fiber protein (SEQ ID 4) (protein)
chain: MGSSHHHHHHSSGLVPRGSHMANVIKTVLTYQLDGSNRDFNIPFEYLARKFVVVTLIGVDRKVLTINTDYRFATRTTISLTKAWGPADGYTTIELRRVTSTTDRLVDFTDGSILRAYDLNVAQIQTMHVAEEARDLTTDTIGVNNDGHLDARGRRIVNLANAVDDRDAVPFGQLKTMNQNSWQARNEALQFRNEAETFRNQAEGFKNESSTNATNTKQWRDETKGFRDEAKRFKNTAGQYATSAGNSASAAHQSEVNAENSATASANSAHLAEQQADRAEREADKLENYNGLAGAIDKVDGTNVYWKGNIHANGRLYMTTNGFDCGQYQQFFGGVTNRYSVMEWGDENGWLMYVQRREWTTAIGGNIQLVVNGQIITQGGAMTGQLKLQNGHVLQLESASDKAHYILSKDGNRNNWYIGRGSDNNNDCTFHSYVHGTTLTLKQDYAVVNKHFHVGQAVVATDGNIQGTKWGGKWLDAYLRDSFVAKSKAWTQVWSGSAGGGVSVTVSQDLRFRNIWIKCANNSWNFFRTGPDGIYFIASDGGWLRFQIHSNGLGFKNIADSRSVPNAIMVENE
modifications: His tag; Bacteriophage T7
In the case of B1, the “liver localization of p17 protein in monkey” value (monkey hepatocytes) is reported as “efficiently targets to monkey hepatocytes”.
